# According to paper PMC4153739 (Biochemistry, 2012):
# Experiments:
# [1] = target: NR1-2b/NR2B NMDA receptor (Rattus norvegicus, UniProt P35439+Q00960); assay type: cell-based
# [2] = target: NR1-2b/NR2C NMDA receptor (Rattus norvegicus, UniProt P35439+Q00961); assay type: cell-based; conditions: 10 µM
# [3] = target: NR1-2b/NR2D NMDA receptor (Rattus norvegicus, UniProt P35439+Q62645); assay type: cell-based; conditions: 10 µM
# [4] = tested on: NR1–2a-containing NMDA receptor subtypes; assay type: cell-based, rat; conditions: 10 µM
# [5] = assay type: physicochemical; conditions: pH 7
# [6] = tested on: 6 Hz partial psychomotor seizure
# Sequence of NR1-2b/NR2B NMDA receptor (Q00960 27-1482, other chains not shown): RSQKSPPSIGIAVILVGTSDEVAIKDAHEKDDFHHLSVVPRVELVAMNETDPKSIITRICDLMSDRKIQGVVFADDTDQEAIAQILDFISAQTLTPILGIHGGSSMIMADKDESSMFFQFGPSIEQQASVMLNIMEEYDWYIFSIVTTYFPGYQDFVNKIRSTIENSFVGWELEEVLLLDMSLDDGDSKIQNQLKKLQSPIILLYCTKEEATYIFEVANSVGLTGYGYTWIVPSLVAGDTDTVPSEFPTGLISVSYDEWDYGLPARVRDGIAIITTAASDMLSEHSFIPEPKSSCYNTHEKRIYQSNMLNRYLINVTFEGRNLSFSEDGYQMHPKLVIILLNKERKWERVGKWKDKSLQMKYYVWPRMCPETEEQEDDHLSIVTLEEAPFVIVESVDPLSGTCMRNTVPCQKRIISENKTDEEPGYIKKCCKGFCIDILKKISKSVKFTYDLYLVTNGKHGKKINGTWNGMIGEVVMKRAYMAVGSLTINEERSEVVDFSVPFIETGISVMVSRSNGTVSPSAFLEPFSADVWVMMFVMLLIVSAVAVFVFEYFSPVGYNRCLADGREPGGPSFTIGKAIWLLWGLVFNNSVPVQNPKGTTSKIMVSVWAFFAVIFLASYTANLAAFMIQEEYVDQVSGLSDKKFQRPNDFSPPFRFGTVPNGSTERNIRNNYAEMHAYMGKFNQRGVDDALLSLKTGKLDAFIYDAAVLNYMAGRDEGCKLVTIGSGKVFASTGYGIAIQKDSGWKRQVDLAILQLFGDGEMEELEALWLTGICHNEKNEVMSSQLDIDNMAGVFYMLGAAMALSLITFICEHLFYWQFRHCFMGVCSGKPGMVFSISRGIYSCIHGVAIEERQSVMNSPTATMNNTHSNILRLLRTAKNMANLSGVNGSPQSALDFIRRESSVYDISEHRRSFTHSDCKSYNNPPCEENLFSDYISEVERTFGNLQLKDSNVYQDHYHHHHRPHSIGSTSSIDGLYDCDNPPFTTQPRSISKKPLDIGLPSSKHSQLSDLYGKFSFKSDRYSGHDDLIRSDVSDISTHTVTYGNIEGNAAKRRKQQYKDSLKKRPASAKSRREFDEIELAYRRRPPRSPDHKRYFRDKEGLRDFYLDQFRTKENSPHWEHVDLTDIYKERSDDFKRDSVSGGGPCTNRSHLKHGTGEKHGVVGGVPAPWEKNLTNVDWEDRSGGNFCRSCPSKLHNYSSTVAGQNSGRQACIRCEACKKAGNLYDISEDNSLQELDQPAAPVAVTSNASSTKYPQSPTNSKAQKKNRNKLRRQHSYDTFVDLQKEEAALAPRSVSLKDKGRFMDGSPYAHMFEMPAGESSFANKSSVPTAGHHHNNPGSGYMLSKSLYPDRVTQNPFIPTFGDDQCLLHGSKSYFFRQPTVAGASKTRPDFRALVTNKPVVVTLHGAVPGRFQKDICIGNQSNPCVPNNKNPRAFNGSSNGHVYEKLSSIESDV
# Sequence of NR1-2b/NR2D NMDA receptor (Q62645 28-1323, other chains not shown): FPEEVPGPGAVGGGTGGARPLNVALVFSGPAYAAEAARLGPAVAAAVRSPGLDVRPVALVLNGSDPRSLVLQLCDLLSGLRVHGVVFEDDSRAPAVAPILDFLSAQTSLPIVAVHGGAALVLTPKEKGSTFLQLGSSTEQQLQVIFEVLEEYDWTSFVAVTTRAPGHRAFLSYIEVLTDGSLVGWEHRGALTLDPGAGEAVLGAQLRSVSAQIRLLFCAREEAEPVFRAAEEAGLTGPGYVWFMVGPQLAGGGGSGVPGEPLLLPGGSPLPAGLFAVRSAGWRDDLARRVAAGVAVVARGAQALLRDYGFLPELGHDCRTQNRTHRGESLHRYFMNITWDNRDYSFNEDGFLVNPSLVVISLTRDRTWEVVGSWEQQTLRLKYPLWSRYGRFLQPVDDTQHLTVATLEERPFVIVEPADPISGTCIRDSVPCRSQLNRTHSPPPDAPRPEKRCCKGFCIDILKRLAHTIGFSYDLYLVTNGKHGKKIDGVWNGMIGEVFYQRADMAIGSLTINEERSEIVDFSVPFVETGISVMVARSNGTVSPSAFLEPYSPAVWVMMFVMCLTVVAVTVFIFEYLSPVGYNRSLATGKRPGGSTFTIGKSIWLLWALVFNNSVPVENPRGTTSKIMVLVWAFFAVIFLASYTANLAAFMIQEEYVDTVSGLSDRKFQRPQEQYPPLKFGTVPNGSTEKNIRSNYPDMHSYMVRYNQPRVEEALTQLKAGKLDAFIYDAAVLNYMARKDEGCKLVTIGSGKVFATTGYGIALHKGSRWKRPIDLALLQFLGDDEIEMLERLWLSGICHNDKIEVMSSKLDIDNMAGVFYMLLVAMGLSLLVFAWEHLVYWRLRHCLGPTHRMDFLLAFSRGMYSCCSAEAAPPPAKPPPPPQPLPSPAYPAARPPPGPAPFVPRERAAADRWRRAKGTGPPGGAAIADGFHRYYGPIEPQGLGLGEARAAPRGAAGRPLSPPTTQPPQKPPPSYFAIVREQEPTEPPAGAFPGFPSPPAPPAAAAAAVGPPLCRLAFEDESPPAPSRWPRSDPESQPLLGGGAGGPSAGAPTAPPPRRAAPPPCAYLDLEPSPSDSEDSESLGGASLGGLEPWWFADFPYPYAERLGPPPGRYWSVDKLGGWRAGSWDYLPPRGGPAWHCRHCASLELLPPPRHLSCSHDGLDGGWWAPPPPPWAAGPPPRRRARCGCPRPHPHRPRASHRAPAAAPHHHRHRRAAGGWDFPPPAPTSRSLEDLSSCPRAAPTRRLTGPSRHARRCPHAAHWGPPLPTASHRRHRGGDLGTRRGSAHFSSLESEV
# Sequence of NR1-2b/NR2C NMDA receptor (Q00961 20-1237, other chains not shown): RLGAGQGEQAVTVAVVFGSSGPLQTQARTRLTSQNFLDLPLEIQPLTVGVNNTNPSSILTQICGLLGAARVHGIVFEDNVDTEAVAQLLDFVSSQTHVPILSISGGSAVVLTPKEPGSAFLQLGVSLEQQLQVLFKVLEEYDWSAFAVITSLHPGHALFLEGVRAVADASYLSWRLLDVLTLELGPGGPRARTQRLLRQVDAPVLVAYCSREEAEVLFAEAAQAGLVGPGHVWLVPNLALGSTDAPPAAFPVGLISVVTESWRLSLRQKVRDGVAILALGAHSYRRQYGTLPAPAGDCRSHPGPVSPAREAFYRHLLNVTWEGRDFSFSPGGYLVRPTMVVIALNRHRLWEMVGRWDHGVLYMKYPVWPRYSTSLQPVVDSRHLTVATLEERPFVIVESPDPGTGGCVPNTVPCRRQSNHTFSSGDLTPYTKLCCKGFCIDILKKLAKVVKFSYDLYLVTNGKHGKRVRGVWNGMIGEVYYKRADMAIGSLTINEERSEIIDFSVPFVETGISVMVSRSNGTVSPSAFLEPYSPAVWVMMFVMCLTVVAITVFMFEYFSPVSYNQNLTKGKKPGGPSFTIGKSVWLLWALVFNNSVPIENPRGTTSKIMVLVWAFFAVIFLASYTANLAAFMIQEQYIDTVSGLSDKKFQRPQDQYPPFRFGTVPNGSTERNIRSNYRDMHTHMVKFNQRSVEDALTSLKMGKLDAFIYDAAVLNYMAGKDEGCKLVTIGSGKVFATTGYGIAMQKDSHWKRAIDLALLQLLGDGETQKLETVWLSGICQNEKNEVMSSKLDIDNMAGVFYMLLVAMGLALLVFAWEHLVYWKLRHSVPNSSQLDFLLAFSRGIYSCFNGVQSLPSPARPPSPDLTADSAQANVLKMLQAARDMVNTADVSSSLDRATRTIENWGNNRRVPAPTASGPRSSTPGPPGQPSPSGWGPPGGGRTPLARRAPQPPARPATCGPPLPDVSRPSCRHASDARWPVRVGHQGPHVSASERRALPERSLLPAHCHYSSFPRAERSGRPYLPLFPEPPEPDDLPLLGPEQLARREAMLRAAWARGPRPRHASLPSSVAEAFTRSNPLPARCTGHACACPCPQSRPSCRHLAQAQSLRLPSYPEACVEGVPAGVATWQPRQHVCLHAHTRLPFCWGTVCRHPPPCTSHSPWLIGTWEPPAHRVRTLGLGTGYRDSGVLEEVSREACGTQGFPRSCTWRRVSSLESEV
smiles,measurement,setting,value
CC(C)C[C@H](NC(=O)[C@H](CC(C(=O)O)C(=O)O)NC(=O)[C@H](CCCNC(=N)N)NC(=O)[C@H](C)NC(=O)[C@H](Cc1ccccc1)NC(=O)[C@H](CC(C(=O)O)C(=O)O)NC(=O)[C@@H]1C[C@@H](O)CN1C(=O)[C@H](C)NC(=O)[C@H](CCCCN)NC(=O)[C@H](CC(C(=O)O)C(=O)O)NC(=O)[C@H](C)NC(=O)[C@H](CC(C)C)NC(=O)[C@H](CC(C(=O)O)C(=O)O)NC(=O)[C@H](CC(C(=O)O)C(=O)O)NC(=O)[C@H](CCC(=O)O)NC(=O)CN)C(=O)N[C@@H](C)C(=O)N[C@@H](CC(N)=O)C(N)=O [ConRl-B],discrimination between NR2B and all other NR2 subunits,[1],at least 100 fold
same,"antagonist activity at the highest concentration tested, NR2C",[2],little or no antagonist activity
same,"antagonist activity at the highest concentration tested, NR2D",[3],little or no antagonist activity
same,potency on NR1-2a-containing subtypes,[4],little or no potency
same,estimated helical content in the presence of calcium,[5],59%
same,estimated percentage of helicity in the absence of calcium,[5],10%
same,percent of helical transition induced by calcium,[5],49%
same,rectal body temperature versus saline control group,"[6]; mouse, in vivo",did not differ between groups
same,mice protected from seizures,[6]; n=8,50%
